Experimental data: EP4714953A1, “MELANOCORTIN 2-TYPE RECEPTOR ANTAGONIST” (Scohia Pharma, Inc., priority 2023, dated 2024)

Legend:
human MC2R = molecular target: T1, human MC2R (Homo sapiens, UniProt Q01718); test: Measurement of human MC2R inhibitory activity using intracellular cAMP concentration as an indicator; assay type: cell-based; settings: test compound at 1 µM; GeneBLAzer MC2R-CRE-bla CHO-K1 cells; ACTH (Human 1-24) final concentration 3 pM; intracellular cAMP by HTRF; read-out: MC2R inhibition rate (% of inhibition)
T1 construct: host or cells: GeneBLAzer MC2R-CRE-bla CHO-K1 cells
T1 sequence (Q01718 whole entry): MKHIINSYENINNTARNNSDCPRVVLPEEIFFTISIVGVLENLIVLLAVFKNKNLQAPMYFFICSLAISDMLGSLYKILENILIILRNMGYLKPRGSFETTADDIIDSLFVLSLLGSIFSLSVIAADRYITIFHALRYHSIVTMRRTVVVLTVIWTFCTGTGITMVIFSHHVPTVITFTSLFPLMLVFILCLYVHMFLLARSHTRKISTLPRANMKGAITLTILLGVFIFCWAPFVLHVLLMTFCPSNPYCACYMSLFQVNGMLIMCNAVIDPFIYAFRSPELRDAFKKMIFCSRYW
T1 sequence (Q8TCY5 whole entry partner): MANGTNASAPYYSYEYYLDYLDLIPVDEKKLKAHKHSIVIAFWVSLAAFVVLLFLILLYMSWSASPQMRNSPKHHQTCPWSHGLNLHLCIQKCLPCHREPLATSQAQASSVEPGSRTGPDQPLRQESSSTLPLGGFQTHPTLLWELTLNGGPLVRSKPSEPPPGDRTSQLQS
How it was run: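 MC2R-CRE-bla CHO-K1 cells at 1,500/well in HBSS with 10 mM HEPES pH 7.5, 0.01% BSA and 500 µM IBMX, preincubated 20 min with compound, then stimulated with 3 pM ACTH(1-24) for 30 min at room temperature. cAMP read by HTRF; % inhibition from the ACTH-stimulated and unstimulated windows.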

[1] = test system: ACTH-induced corticosterone secretion; test: Suppressive action of ACTH-induced corticosterone secretion in mice; assay type: in vivo; settings: 10 mg/kg, p.o.; male ICR mice; ACTH (1-24) 100 µg/kg subcutaneously 1 hr later; AUC up to 2 hr after ACTH administration
Description: Experimental Example 2: Suppressive action of ACTH-induced corticosterone secretion in mice
Nine-week-old male ICR mice (CHARLES RIVER LABORATORIES JAPAN, INC.) were used in the test.
The mice were assigned to each group based on body weight, with 5 mice per group. Test compounds were suspended in 0.5% (w/v) methylcellulose solution. ACTH (1-24) (A0948, LKT Laboratories, Inc.) was dissolved in saline. The test compound (10 mg/kg) or vehicle was orally administered to mice, and 1 hr later, ACTH solution (100 µg/kg) was administered subcutaneously. Blood was collected from the tail vein before ACTH administration and 0.5, 1, and 2 hr after administration, and corticosterone concentration in plasma was measured using an ELISA kit (EC3001-1, Assaypro). Using the plasma corticosterone concentration at each time point, the area under the blood concentration-time curve up to 2 hr after administration (AUC0-2h) was calculated.

inhibition at 1 µM (human MC2R) [%]	Compound	plasma corticosterone AUC0-2h (% of vehicle, mean±S.D.) [1]
100	CCOc1ncccc1-c1ccc(N2C[C@H]3CN(c4ccc(Cl)cc4C(F)(F)F)C(=O)N3C[C@H]2CC)c(C(=O)N[C@@H]2CCNC2=O)n1 [Example 47, 3-[(6R,8aS)-2-[4-chloro-2-(trifluoromethyl)phenyl]-6-ethyl-3-oxo-5,6,8,8a-tetrahydro-1H-imidazo[1,5-a]pyrazin-7-yl]-6-(2-ethoxypyridin-3-yl)-N-[(3R)-2-oxopyrrolidin-3-yl]pyridine-2-carboxamide]	17.5 ± 4.4 % of vehicle
100	CCOc1ncccc1-c1ccc(N2C[C@H]3CN(c4ccc(Cl)cc4C(F)(F)F)C(=O)N3C[C@H]2CC)c(C(=O)N[C@@H]2CC(=O)N(C)C2)n1 [Example 49, 3-[(6R,8aS)-2-[4-chloro-2-(trifluoromethyl)phenyl]-6-ethyl-3-oxo-5,6,8,8a-tetrahydro-1H-imidazo[1,5-a]pyrazin-7-yl]-6-(2-ethoxypyridin-3-yl)-N-[(3R)-1-methyl-5-oxopyrrolidin-3-yl]pyridine-2-carboxamide]	7.7 ± 2.5 % of vehicle
100	CCOc1ncccc1-c1ccc(N2C[C@H]3CN(c4ccc(Cl)cc4C#N)C(=O)N3C[C@H]2CC)c(C(=O)N[C@H]2CNC(=O)C2)n1 [Example 53, 3-[(6R,8aS)-2-(4-chloro-2-cyanophenyl)-6-ethyl-3-oxo-5,6,8,8a-tetrahydro-1H-imidazo[1,5-a]pyrazin-7-yl]-6-(2-ethoxypyridin-3-yl)-N-[(3R)-5-oxopyrrolidin-3-yl]pyridine-2-carboxamide]	
100	CCOc1ncccc1-c1ccc(N2C[C@H]3CN(c4ccc(C(F)(F)F)cc4C#N)C(=O)N3C[C@H]2CC)c(C(=O)N[C@H]2CNC(=O)C2)n1 [Example 56, 3-[(6R,8aS)-2-[2-cyano-4-(trifluoromethyl)phenyl]-6-ethyl-3-oxo-5,6,8,8a-tetrahydro-1H-imidazo[1,5-a]pyrazin-7-yl]-6-(2-ethoxypyridin-3-yl)-N-[(3R)-5-oxopyrrolidin-3-yl]pyridine-2-carboxamide]	

More lines, now with the values behind:

Compound	inhibition at 1 µM (human MC2R) [%]	plasma corticosterone AUC0-2h (% of vehicle, mean±S.D.) [1]
CCOc1ncccc1-c1ccc(N2C[C@H]3CN(c4ccc(Cl)cc4C(F)(F)F)C(=O)N3C[C@H]2CC)c(C(=O)NCC2(O)COC2)n1 [Example 30, 3-[(6R,8aS)-2-[4-chloro-2-(trifluoromethyl)phenyl]-6-ethyl-3-oxo-5,6,8,8a-tetrahydro-1H-imidazo[1,5-a]pyrazin-7-yl]-6-(2-ethoxypyridin-3-yl)-N-[(3-hydroxyoxetan-3-yl)methyl]pyridine-2-carboxamide]	100	8.6 ± 2.4 % of vehicle
CCOc1ncccc1-c1ccc(N2C[C@H]3CN(c4ccc(Cl)cc4C(F)(F)F)C(=O)N3C[C@H]2CC)c(C(=O)N[C@@H]2CCNC2)n1 [Example 31, 3-[(6R,8aS)-2-[4-chloro-2-(trifluoromethyl)phenyl]-6-ethyl-3-oxo-5,6,8,8a-tetrahydro-1H-imidazo[1,5-a]pyrazin-7-yl]-6-(2-ethoxypyridin-3-yl)-N-[(3R)-pyrrolidin-3-yl]pyridine-2-carboxamide]	100	61.1 ± 7.3 % of vehicle
CCOc1ncccc1-c1ccc(N2C[C@H]3CN(c4ccc(Cl)cc4C(F)(F)F)C(=O)N3C[C@H]2CC)c(C(=O)N[C@H]2CNC(=O)C2)n1 [Example 38, 3-[(6R,8aS)-2-[4-chloro-2-(trifluoromethyl)phenyl]-6-ethyl-3-oxo-5,6,8,8a-tetrahydro-1H-imidazo[1,5-a]pyrazin-7-yl]-6-(2-ethoxypyridin-3-yl)-N-[(3R)-5-oxopyrrolidin-3-yl]pyridine-2-carboxamide]	100	14.2 ± 4.3 % of vehicle
CCOc1ncccc1-c1ccc(N2C[C@H]3CN(c4ccc(Cl)cc4C(F)(F)F)C(=O)N3C[C@H]2CC)c(C(=O)NCC(=O)NC)n1 [Example 37, 3-[(6R,8aS)-2-[4-chloro-2-(trifluoromethyl)phenyl]-6-ethyl-3-oxo-5,6,8,8a-tetrahydro-1H-imidazo[1,5-a]pyrazin-7-yl]-6-(2-ethoxypyridin-3-yl)-N-[2-(methylamino)-2-oxoethyl]pyridine-2-carboxamide]	100	14.0 ± 1.8 % of vehicle
CCOc1ncccc1-c1ccc(N2C[C@H]3CN(c4ccc(Cl)cc4C(F)(F)F)C(=O)N3C[C@H]2CC)c(C(=O)NC[C@H](C)O)n1 [Example 34, 3-[(6R,8aS)-2-[4-chloro-2-(trifluoromethyl)phenyl]-6-ethyl-3-oxo-5,6,8,8a-tetrahydro-1H-imidazo[1,5-a]pyrazin-7-yl]-6-(2-ethoxypyridin-3-yl)-N-[(2S)-2-hydroxypropyl]pyridine-2-carboxamide]	96	15.6 ± 4.9 % of vehicle
CCOc1ncccc1-c1ccc(N2CCN3C(=O)N(c4ccc(Cl)cc4C(F)(F)F)CC3C2)c(C(=O)NCCN(C)C)n1 (stereo not shown) [Example 4, 3-[2-[4-chloro-2-(trifluoromethyl)phenyl]-3-oxo-5,6,8,8a-tetrahydro-1H-imidazo[1,5-a]pyrazin-7-yl]-N-[2-(dimethylamino)ethyl]-6-(2-ethoxypyridin-3-yl)pyridine-2-carboxamide]	100	
CCOc1ncccc1-c1ccc(N2CCN3C(=O)N(c4ccc(Cl)cc4C(F)(F)F)C[C@@H]3C2)c(C=O)n1 [Example 5, 3-[(8aS)-2-[4-chloro-2-(trifluoromethyl)phenyl]-3-oxo-5,6,8,8a-tetrahydro-1H-imidazo[1,5-a]pyrazin-7-yl]-6-(2-ethoxypyridin-3-yl)pyridine-2-carbaldehyde]	100	
CCOc1ncccc1-c1ccc(N2CCN3C(=O)N(c4ccc(Cl)cc4C(F)(F)F)C[C@@H]3C2)c(C(=O)NCCS(C)(=O)=O)n1 [Example 18, 3-[(8aS)-2-[4-chloro-2-(trifluoromethyl)phenyl]-3-oxo-5,6,8,8a-tetrahydro-1H-imidazo[1,5-a]pyrazin-7-yl]-6-(2-ethoxypyridin-3-yl)-N-(2-methylsulfonylethyl)pyridine-2-carboxamide]	100	
